IC20 data for 18 molecules are collected here from patent US20070129383A1, “Substituted 2-amino-[1,2,4]triazolo[1,5-a]pyrimidine derivative and use thereof” (priority 2003, published 2007).

The structures appear in SMILES notation.

The assay relates to MHC class I expression of T1 cell (human lymphoma line 174×CEM.). Kind of assay: Effect on MHC class I expression of T1 cell (flow cytometry, MFI). In kind it is cell-based. Particulars: 72 h, concentration inhibiting MHC class I molecule expression level by 20%, T1 cells, three days incubation, read-out: EC20. How it is done:
T1 cells (5.7×10^3 cells/200 μL/well) were incubated using a 96-well flat bottom microplate in RPMI1640 culture medium (Iwaki Glass Corporation) containing 10% bovine serum (hereinafter referred to as FBS; Iruvine Scientific) in the presence of a test compound of each concentration diluted from 400 μM by a common ratio of root 10 at 37° C. in an incubator containing 5% carbon dioxide concentration for three days. After incubation, cells were stained with fluoroisothiocyanate labeled mouse antihuman MHC class I monoclonal antibody (antibody produced by cell strain W6/32 (ATCC No, CRL1991). Mean fluorescence intensity (hereinafter referred to as MFI) of stained cells was measured with flow cytometry FACScan (BD), and this was assumed as MHC class I molecule expression level. Concentrations of the test compounds which inhibited the expression level of MHC class I molecule by 20% (EC20 value) were calculated from the following Expression (1), which are shown in Table 1. [formula]
Background: A flow cytometer gives signals particle by particle.
With `CNc1nc2nccc(-c3cccs3)n2n1` [Example 001, N-methyl-7-thiophene-[1,2,4]triazolo[1,5-a]pyrimidin-2-ylamine], the IC20 amounted to 6 µM.

`CC(C)(C)OC(=O)Nc1nc2nccc(-c3ccccc3)n2n1` [Example 007]: the IC20 was 6.25 µM.

For `COc1cccc(-c2ccnc3nc(NC(=O)OC(C)(C)C)nn23)c1` [Example 008], the IC20 is 7.5 µM.

Consider `CC(C)(C)OC(=O)Nc1nc2nccc(-c3ccc([N+](=O)[O-])cc3)n2n1` [Example 009], for which the IC20 amounted to 7.2 µM.

For `CC(=O)C1CC(CC(=O)Nc2nc3nccc(-c4cccs4)n3n2)C1(C)C` (stereo not drawn) [Example 013], the IC20 was determined as 8.2 µM.

With `CC(C)=CC(=O)Nc1nc2nccc(-c3cccs3)n2n1` [Example 015], the IC20 is 9.2 µM.

Consider `O=C(CC1CCCC1)Nc1nc2nccc(-c3cccs3)n2n1` [Example 016], for which the IC20 stood at 9.7 µM.

For the molecule `O=C(/C=C\Sc1ccccc1)Nc1nc2nccc(-c3cccs3)n2n1` [Example 020], the IC20 was 5.3 µM.

`O=C(CCS(=O)(=O)c1ccccc1)Nc1nc2nccc(-c3cccs3)n2n1` [Example 022, 3-benzenesulfonyl-N-(7-thiophene[1,2,4]triazolo[1,5-a]pyrimidin-2-yl)propionamide]: the IC20 is 8.2 µM.

On to `O=C(Nc1nc2nccc(-c3cccs3)n2n1)C1C2CC3C(C2=O)C31` (stereo not drawn) [Example 026], for which the IC20 is 8.8 µM.

Regarding `CC1(C)CC(=O)C=C(C(=O)Nc2nc3nccc(-c4cccs4)n3n2)O1` [Example 028, 6,6-dimethyl-4-oxo-5,6-dihydro-4H-pyran-2-carboxylic acid N-(7-thiophen-2-yl-[1,2,4]triazolo[1,5-a]pyrimidin-2-yl)amide], the IC20 amounted to 7.7 µM.

For `CC(C)(C)OC(=O)NC(CSCc1ccccc1)C(=O)Nc1nc2nccc(-c3cccs3)n2n1` (stereo not drawn) [Example 036], the IC20 stood at 7.1 µM.

As to `CC(C)[C@H](N)C(=O)Nc1nc2nccc(-c3cccs3)n2n1` [Example 040], the IC20 came out at 8.4 µM.

For `CCC(NC(=O)OC(C)(C)C)C(=O)Nc1nc2nccc(-c3cccs3)n2n1` [Example 047, (S)-(1-(7-thiophen-2-yl-triazolo[1,5-a]-pyrimidin-2-ylcarbamoyl)propyl)carbamic acid tert-butyl ester], the IC20 stood at 7.3 µM.

Consider `COc1ccc(-c2ccnc3nc(NC(C)=O)nn23)cc1` [Example 052], for which the IC20 turned out to be 6.8 µM.

For the molecule `COc1cccc(-c2ccnc3nc(NC(=O)CCS(=O)(=O)c4ccccc4)nn23)c1` [Example 054, 3-benzenesulfonyl-N-(7-(3-methoxyphenyl)-[1,2,4]triazolo[1,5-a]pyrimidin-2-yl)propionamide], the IC20 is 4 µM.

With `O=C(CCS(=O)(=O)c1ccccc1)Nc1nc2nccc(-c3ccccc3)n2n1` [Example 055], the IC20 is 1.6 µM.

Regarding `COc1ccc(-c2ccnc3nc(NC(=O)CCS(=O)(=O)c4ccccc4)nn23)cc1` [Example 056, 3-benzenesulfonyl-N-(7-(4-methoxyphenyl)-[1,2,4]triazolo[1,5-a]pyrimidin-2-yl)propionamide], the IC20 came to 0.74 µM.
